Tests used:
[1] = tested on: anti-Factor Xa Activity of Unfractionated Heparin; assay: Anti-Factor Xa assay: neutralization of unfractionated heparin in citrate or plasma in vitro; assay type: biochemical, human; settings: for Unfractionated Heparin Neutralized: UFH 0.7 U/ml
Protocol: (§1) The ability of peptides such as (ARKKAAKA)3VLVLVLVL (SEQ ID NO:5) to neutralize the anti-Factor Xa activity of UFH and LMWH in vitro was tested using the Stachrom Heparin kit (Diagnostica Stago), a standard hematology laboratory assay used to measure the anti-Factor Xa activity of heparin. The assay was performed using the low molecular weight heparin enoxaparin sodium (Lovenox®, Aventis Pharmaceuticals, Inc.), unfractionated heparin (UFH), or the non-heparin glycosaminoglycan danaparoid sodium (Orgaran®, Organon Inc., West Orange, N.J.) in 0.32% citrate or in plasma anticoagulated with 0.32% citrate. Enoxaparin is commonly used clinically as a low molecular weight heparin (LMWH). Danaparoid is commonly used clinically as a non-heparin glycosaminoglycan anticoagulant. Currently, the only FDA approved drug to target UFH is protamine, which is not effective in vivo against LMWH or a non-heparin glycosaminoglycan such as danaparoid. Buffer and ATIII are added to form the heparin/ATIII complex, peptide is added, then Factor Xa, reporter dye substrate for Factor Xa activity, and stop solution, and the dye concentration is read at 405 nm. The absorbance of the dye increases with increasing Factor Xa activity, and thus is inversely proportional to the heparin (anti-Factor Xa activity) concentration. Peptides were tested in plasma obtained from three volunteers (A, B, and C). Platelet function inhibitors PG12 and theophylline were added to the blood immediately upon collection. […]

[2] = Hemodynamic effects in rats after administration of the LMWH Lovenox; settings: in the presence of LMWH Lovenox
Protocol: Next, experiments were performed in which the animals were treated with the peptides after the administration of the LMWH Lovenox®, as would happen in the clinical situation, because binding of peptides to LMWH would be expected to reduce the effects of the peptides on hemodynamic function.

[3] = tested on: Anti-Factor Xa Activity of the Non-Heparin Glycosaminoglycan Orgaran ®; assay: Anti-Factor Xa assay: neutralization of Orgaran in citrate or plasma in vitro; assay type: biochemical, human
Protocol: as §1

[4] = Hemodynamic effects in rats without prior Lovenox; settings: no Lovenox
Protocol: Rats were sedated, and catheters were inserted into the femoral vein and femoral artery. The femoral artery catheter was hooked up to the computerized monitoring system, and injections were made through the femoral vein. Peptides were injected into rats without prior injection of Lovenox. Two or more rats (300-350 grams) were treated with 2 mg protamine or peptide.
At the times indicated in the figures, the following actions were taken: administration of saline to insure that the animal and intubations were stable; administration of test peptide or protamine alone; then administration of protamine.

Substance: ARKKAAKAARKKAAKAARKKAAKAVLVLVL [(ARKKAAKA)3VLVLVL]
- Unfractionated Heparin Neutralized ([1]; 1 μg/ml Peptide, A Plasma): 0.249 ± 0.129 U/ml
- Unfractionated Heparin Neutralized ([1]; 1 μg/ml Peptide, B Plasma): 0.142 ± 0.040 U/ml
- Unfractionated Heparin Neutralized ([1]; 1 μg/ml Peptide, C Plasma): 0.114 ± 0.056 U/ml
- Unfractionated Heparin Neutralized ([1]; 1 μg/ml Peptide, Citrate): 0.150 ± 0.023 U/ml
- Unfractionated Heparin Neutralized ([1]; 6 μg/ml Peptide, A Plasma): 0.667 ± 0.019 U/ml
- Unfractionated Heparin Neutralized ([1]; 6 μg/ml Peptide, B Plasma): 0.598 ± 0.016 U/ml
- Unfractionated Heparin Neutralized ([1]; 6 μg/ml Peptide, C Plasma): 0.572 ± 0.018 U/ml
- Unfractionated Heparin Neutralized ([1]; 6 μg/ml Peptide, Citrate): 0.576 ± 0.060 U/ml
- Unfractionated Heparin Neutralized ([1]; 12 μg/ml Peptide, A Plasma): 0.570 ± 0.119 U/ml
- Unfractionated Heparin Neutralized ([1]; 12 μg/ml Peptide, B Plasma): 0.585 ± 0.005 U/ml
- Unfractionated Heparin Neutralized ([1]; 12 μg/ml Peptide, C Plasma): 0.575 ± 0.013 U/ml
- Unfractionated Heparin Neutralized ([1]; 12 μg/ml Peptide, Citrate): 0.595 ± 0.021 U/ml

Substance: Protamine [reference compound]
- blood pressure drop [2]: ≥ 30 mm Hg
- duration of blood pressure drop [2]: 10 min
- heart rate nadir [2]: about 80 % of normal
- rats with blood pressure drop out of rats tested [2]: 10 out of 15
- Orgaran Neutralized ([3]; 1 μg/ml Peptide, A Plasma): 0.027 ± 0.004 U/ml
- Orgaran Neutralized ([3]; 1 μg/ml Peptide, B Plasma): 0.021 ± 0.007 U/ml
- Orgaran Neutralized ([3]; 1 μg/ml Peptide, C Plasma): 0.017 ± 0.006 U/ml
- Orgaran Neutralized ([3]; 1 μg/ml Peptide, Citrate): 0.030 ± 0.015 U/ml
- Orgaran Neutralized ([3]; 6 μg/ml Peptide, A Plasma): 0.050 ± 0.025 U/ml
- Orgaran Neutralized ([3]; 6 μg/ml Peptide, B Plasma): 0.040 ± 0.018 U/ml
- Orgaran Neutralized ([3]; 6 μg/ml Peptide, C Plasma): 0.034 ± 0.021 U/ml
- Orgaran Neutralized ([3]; 6 μg/ml Peptide, Citrate): 0.093 ± 0.046 U/ml
- Orgaran Neutralized ([3]; 12 μg/ml Peptide, A Plasma): 0.016 ± 0.013 U/ml
- Orgaran Neutralized ([3]; 12 μg/ml Peptide, B Plasma): 0.065 ± 0.014 U/ml
- Orgaran Neutralized ([3]; 12 μg/ml Peptide, C Plasma): 0.043 ± 0.018 U/ml
- Orgaran Neutralized ([3]; 12 μg/ml Peptide, Citrate): 0.308 ± 0.017 U/ml
- Orgaran Neutralized ([3]; 60 μg/ml Peptide, A Plasma): 0.140 ± 0.021 U/ml
- Orgaran Neutralized ([3]; 60 μg/ml Peptide, B Plasma): 0.241 ± 0.032 U/ml
- Orgaran Neutralized ([3]; 60 μg/ml Peptide, C Plasma): 0.234 ± 0.025 U/ml
- Orgaran Neutralized ([3]; 60 μg/ml Peptide, Citrate): 0.322 ± 0.038 U/ml
- Orgaran Neutralized ([3]; 120 μg/ml Peptide, A Plasma): 0.340 ± 0.021 U/ml
- Orgaran Neutralized ([3]; 120 μg/ml Peptide, B Plasma): 0.364 ± 0.013 U/ml
- Orgaran Neutralized ([3]; 120 μg/ml Peptide, C Plasma): 0.318 ± 0.019 U/ml
- Orgaran Neutralized ([3]; 120 μg/ml Peptide, Citrate): 0.136 ± 0.034 U/ml
- Unfractionated Heparin Neutralized ([1]; 1 μg/ml Peptide, A Plasma): 0.241 ± 0.026 U/ml
- Unfractionated Heparin Neutralized ([1]; 1 μg/ml Peptide, B Plasma): 0.268 ± 0.028 U/ml
- Unfractionated Heparin Neutralized ([1]; 1 μg/ml Peptide, C Plasma): 0.161 ± 0.030 U/ml
- Unfractionated Heparin Neutralized ([1]; 1 μg/ml Peptide, Citrate): 0.126 ± 0.042 U/ml
- anti-Factor Xa activity of UFH neutralized ([1]; 6 μg/ml): about 0.4 U/ml
- Unfractionated Heparin Neutralized ([1]; 6 μg/ml Peptide, A Plasma): 0.442 ± 0.012 U/ml
- Unfractionated Heparin Neutralized ([1]; 6 μg/ml Peptide, B Plasma): 0.423 ± 0.035 U/ml
- Unfractionated Heparin Neutralized ([1]; 6 μg/ml Peptide, C Plasma): 0.425 ± 0.012 U/ml
- Unfractionated Heparin Neutralized ([1]; 6 μg/ml Peptide, Citrate): 0.475 ± 0.017 U/ml
- Unfractionated Heparin Neutralized ([1]; 12 μg/ml Peptide, A Plasma): 0.466 ± 0.023 U/ml
- Unfractionated Heparin Neutralized ([1]; 12 μg/ml Peptide, B Plasma): 0.448 ± 0.041 U/ml
- Unfractionated Heparin Neutralized ([1]; 12 μg/ml Peptide, C Plasma): 0.405 ± 0.035 U/ml
- Unfractionated Heparin Neutralized ([1]; 12 μg/ml Peptide, Citrate): 0.429 ± 0.010 U/ml
- Unfractionated Heparin Neutralized ([1]; 60 μg/ml Peptide, A Plasma): 0.380 ± 0.037 U/ml
- Unfractionated Heparin Neutralized ([1]; 60 μg/ml Peptide, B Plasma): 0.387 ± 0.047 U/ml
- Unfractionated Heparin Neutralized ([1]; 60 μg/ml Peptide, C Plasma): 0.350 ± 0.019 U/ml
- Unfractionated Heparin Neutralized ([1]; 60 μg/ml Peptide, Citrate): 0.406 ± 0.023 U/ml
- Unfractionated Heparin Neutralized ([1]; 120 μg/ml Peptide, A Plasma): 0.372 ± 0.024 U/ml
- Unfractionated Heparin Neutralized ([1]; 120 μg/ml Peptide, B Plasma): 0.374 ± 0.034 U/ml
- Unfractionated Heparin Neutralized ([1]; 120 μg/ml Peptide, C Plasma): 0.310 ± 0.024 U/ml
- Unfractionated Heparin Neutralized ([1]; 120 μg/ml Peptide, Citrate): 0.374 ± 0.030 U/ml
- reduction/drop of blood pressure ([4]; 2 mg per rat (300-350 grams)): 25-35 mm Hg
- onset of blood pressure reduction ([4]; 2 mg per rat): within less than a minute
- time to nadir of blood pressure ([4]; 2 mg per rat): about 4.5 minutes
- time to recovery/reversal of blood pressure ([4]; 2 mg per rat): 10 to 12 min

Substance: VLVL(ARKKAAKA)3ARKKCAKA (VLVLARKKAAKAARKKAAKAARKKAAKAARKKCAKA; Fragment)
- Unfractionated Heparin Neutralized ([1]; 1 μg/ml Peptide, A Plasma): 0.240 ± 0.061 U/ml
- Unfractionated Heparin Neutralized ([1]; 1 μg/ml Peptide, B Plasma): 0.259 ± 0.063 U/ml
- Unfractionated Heparin Neutralized ([1]; 1 μg/ml Peptide, C Plasma): 0.233 ± 0.075 U/ml
- Unfractionated Heparin Neutralized ([1]; 1 μg/ml Peptide, Citrate): 0.262 ± 0.101 U/ml
- Unfractionated Heparin Neutralized ([1]; 6 μg/ml Peptide, A Plasma): 0.574 ± 0.014 U/ml
- Unfractionated Heparin Neutralized ([1]; 6 μg/ml Peptide, B Plasma): 0.550 ± 0.061 U/ml
- Unfractionated Heparin Neutralized ([1]; 6 μg/ml Peptide, C Plasma): 0.559 ± 0.014 U/ml
- Unfractionated Heparin Neutralized ([1]; 6 μg/ml Peptide, Citrate): 0.597 ± 0.034 U/ml
- Unfractionated Heparin Neutralized ([1]; 12 μg/ml Peptide, A Plasma): 0.618 ± 0.014 U/ml
- Unfractionated Heparin Neutralized ([1]; 12 μg/ml Peptide, B Plasma): 0.586 ± 0.001 U/ml
- Unfractionated Heparin Neutralized ([1]; 12 μg/ml Peptide, C Plasma): 0.526 ± 0.031 U/ml
- Unfractionated Heparin Neutralized ([1]; 12 μg/ml Peptide, Citrate): 0.534 ± 0.056 U/ml
